Source: US12279600B2, “Genetically modified sterile avians and method for the reconstitution thereof” (The University Court of the University of Edinburgh, priority 2018, dated 2025)
“Also recorded” adds a separate entry of the source.

Experiments:
[1] = tested on: endogenous FKBPs; details: cited from earlier work
[2] = biological target: FKBP12F36V (Homo sapiens, UniProt P62942, F37V); details: cited from earlier work
[3] = tested on: germ cells; assay: Germ cell ablation in G2 Dazl-iCaspase9 and Dazl-aviCaspase9 embryos after B/B injection; assay type: in vivo, chicken; details: FIG. 11
Procedure: B/B was injected into the dorsal aorta of stage 16 chicken embryos (day 2.5). Embryos were incubated and examined at day 10 for GFP fluorescence and DDX4 expression. Left panels; GFP fluorescence in B/B injected iCaspase9 and aviCaspase9 embryos. Right panels: immunofluorescence for DDX4 protein (red).
The G1 Dazl-icaspase9 and Dazl-aviCaspase9 chickens were raised to sexual maturity and mated with wildtype chickens. Fertile eggs from the matings (G2 embryos) were incubated and examined for GFP expression in the gonads. The germ cells in the gonads of both Dazl-icaspase9 and Dazl-avicaspase9 G2 embryos contained GFP+ cells in the gonad (FIG. 9). […] The G2 embryos were tested for germ cell ablation. 1.0 μl of 0.1 mM B/B dimerization reagent (Takara Bio, Inc) was injected into the bloodstream of day 2.5 (stage 16 Hamilton & Hamburger (HH)) chicken embryos. The embryos were incubated for 8 days, PCR-screened to identify iCaspase9 embryos and examined for GFP expression in the gonads. […] Embryos were incubated for 8 days and examined for florescence and germ cells. […] (FIG. 12).

[4] = tested on: endogenous (host) germ cells; assay: Host germ cell ablation and donor PGC colonisation in Dazl-aviCaspase9 G2 embryos with B/B; assay type: in vivo, chicken; details: Dazl-aviCaspase9 G2 embryos injected with donor TdTomato PGCs and B/B, examined at day 10; FIG. 12
Procedure: FIG. 12 B/B drug treatment of aviCaspase9 transgenic embryos ablates host germ cells and permits transplanted donor cells to populate the host gonad. Stage HH 16 embryos containing the aviCaspase9 transgene targeted to the DAZL locus, were injected with 200 donor PGCs transfected with a transposon to insert a cassette for TdTomato expression randomly in the genome. Injected cells were in 1 μl of solution containing 0.5 mM (final concentration) B/B dimerization drug. After injection, eggs were dosed with 50 μl of 1× Pen/Strep containing 15 μM (final concentration) B/B dimeriser drug and incubated for 8 days. At 10 days of development, gonads were dissected and viewed under fluorescence.
The G1 Dazl-icaspase9 and Dazl-aviCaspase9 chickens were raised to sexual maturity and mated with wildtype chickens. Fertile eggs from the matings (G2 embryos) were incubated and examined for GFP expression in the gonads. The germ cells in the gonads of both Dazl-icaspase9 and Dazl-avicaspase9 G2 embryos contained GFP+ cells in the gonad (FIG. 9). […] The G2 embryos were tested for germ cell ablation. 1.0 μl of 0.1 mM B/B dimerization reagent (Takara Bio, Inc) was injected into the bloodstream of day 2.5 (stage 16 Hamilton & Hamburger (HH)) chicken embryos. The embryos were incubated for 8 days, PCR-screened to identify iCaspase9 embryos and examined for GFP expression in the gonads. […]

[5] = tested on: PGCs containing the targeted icaspase9 gene; assay: PGC culture with dimerization molecule B/B, total cell number after 10 days; assay type: cell-based, chicken
Procedure: FIG. 6 500 PGCs (dazl-GFP, dazl-human-Caspase or dazl-chicken-Caspase) were cultured in the presence or absence of the dimerization molecule B/B. After 10 days the total cell number was counted for each well. N=6 for each data point, from three independent experiments.
FIG. 22 500 PGCs (dazl-GFP, dazl-iCaspase, dazl-aviCaspase, ddx4-iCaspase9) were cultured in the presence or absence of the dimerization molecule B/B. After 10 days the total cell number was counted for each well. N=2 for each data point.
PGCs containing the targeted icaspase9 gene were treated with the B/B dimerization compound. […] These cells were mixed with control red fluorescent PGCs and injected into chicken embryos. The chicken embryos were treated with the B/B dimerization compound. Only red PGCs and control GFP PGCs were visible in the embryos. Dazl icaspase9 PGCs were killed (FIG. 7).
The iCaspase9 trasgene was targeted to either the DDX4 or the DAZL locus in PGCs and the cells were then exposed to the dimerisation drug. Cells containing the transgene inserted at the DAZL locus were determined to be inhibited/killed. Without wishing to be bound by theory, the inventors consider the expression levels at embryonic stages are important for ablating germ cells.

[6] = tested on: host germ cells; assay: Offspring from Dazl-Caspase9 hosts injected with Silkie donor PGCs and B/B; assay type: in vivo, chicken; details: Dazl-Caspase9 hosts injected with black skinned Silkie PGCs; FIG. 23
Procedure: FIG. 23 illustrates the use of caspase9 host ablation using black skinned silkie chicken donor PGCs injected into the iCaspase9 surrogate host embyros which are hatched and bred to produce pure offspring. […] (A-C) The offspring (embryos and chicks) have black skins indicating they came from the donor germ cells.
Utilising caspase 9 expression targeted to the DAZL locus in PGCs, host germ cell ablation and producing offspring from a donor chicken breed were tested using chicken donor PGCs from a black skinned silkie chicken breed. Donor PGCs injected into the caspase host embryos which were then raised to sexual maturity and bred were tested.
In more detail, in this embodiment, black skinned Silkie PGCs were mixed with B/B dimerisation drug and injected into Dazl-Caspase host embryos whilst in the egg. The eggs were sealed and the embryos were hatched then crossed to each other when sexual mature.
50% of offspring should be GFP positive if derived from the endogenous GFP+ caspase9 host PGCs.

[7] = tested on: DAZL-iCasp9 targeted PGCs; assay: Ablation of injected DAZL-iCasp9 targeted PGCs in embryos treated with B/B; assay type: in vivo, chicken; details: stage HH 16 embryos, 25 nM B/B, gonads viewed at 8 days; FIG. 7
Procedure: Stage HH 16 embryos were injected with 3500 PGCs transfected with CRISPR reagents to insert an inducible caspase gene and GFP at the dazl locus, and 3500 PGCs transfected with a transposon to insert a cassette for TdTomato expression randomly in the genome. After injection, embryos were dosed with 50 μl of 1× Pen/Strep with or without 25 nM of the dimeriser drug B/B. At 8 days of development, gonads were dissected and viewed under fluorescence. Images are representative of three independent injections for each treatment.
PGCs containing the targeted icaspase9 gene were treated with the B/B dimerization compound. […] These cells were mixed with control red fluorescent PGCs and injected into chicken embryos. The chicken embryos were treated with the B/B dimerization compound.

[8] = tested on: PGCs containing the targeted nitroreductase gene; assay: PGC culture with nitroreductase pro-drug CB1954, total cell number after 10 days; assay type: cell-based, chicken
Procedure: FIG. 5 500 PGCs (Control, CAG-NTR or Dazl-NTR) were cultured in the presence or absence of the nitroreductase pro-drug CB1954 (n=2 for each concentration of pro-drug). After 10 days the total cell number was counted for each well. N=6 for each data point, from three independent experiments.
PGCs containing the targeted nitroreductase gene were treated with the pro-drug CB1954. PGCs died when exposed to the drug.

FKBP12F36V, sequence (P62942 whole entry F37V): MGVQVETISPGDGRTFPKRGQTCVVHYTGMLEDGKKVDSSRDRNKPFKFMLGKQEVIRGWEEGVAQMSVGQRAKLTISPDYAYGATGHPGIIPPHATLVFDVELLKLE

CC[C@H](C(=O)N1CCCC[C@H]1C(=O)O[C@H](CCc1ccc(OC)c(OC)c1)c1cccc(OCC(=O)NCCNC(=O)COc2cccc([C@@H](CCc3ccc(OC)c(OC)c3)OC(=O)[C@@H]3CCCCN3C(=O)[C@@H](CC)c3cc(OC)c(OC)c(OC)c3)c2)c1)c1cc(OC)c(OC)c(OC)c1 [AP1903]
interaction with endogenous FKBPs [1]: minimal interaction | affinity and selectivity for FKBP12F36V [2]: high affinity and selectivity

CC[C@H](C(=O)N1CCCC[C@H]1C(=O)O[C@H](CCc1ccc(OC)c(OC)c1)c1cccc(OCC(=O)NCC(CNC(=O)COc2cccc([C@@H](CCc3ccc(OC)c(OC)c3)OC(=O)[C@@H]3CCCCN3C(=O)[C@@H](CC)c3cc(OC)c(OC)c(OC)c3)c2)CN(C)C)c1)c1cc(OC)c(OC)c(OC)c1 [B/B, AP20187]
interaction with endogenous FKBPs [1]: minimal interaction | affinity and selectivity for FKBP12F36V [2]: high affinity and selectivity | GFP expression in the gonads ([3]; 1.0 μl of 0.1 mM injected at day 2.5, incubated 8 days): no visible GFP expression | DDX4 positive or GFP+ germ cells in the gonads ([3]; cryosections and DDX4 immuno-staining): almost no identifiable DDX4 positive or GFP+ cells are present; also recorded: no germ cells | endogenous (host) germ cells in the gonad [4]: no endogenous (host) germ cells were detected | PGC number ([5]; control untargeted PGCs): did not have reduced numbers of PGCs | PGC number ([5]; human and chicken caspase9 genes targeted to the dazl locus, FIG. 6): severely reduced PGC numbers | PGC number ([5]; iCaspase 9 targeted to the ddx4 locus): slightly less PGC number | effect on cells with iCaspase9 transgene ([5]; transgene inserted at the DAZL locus, FIG. 22): inhibited/killed | skin phenotype of offspring (donor origin) [6]: black skin | fate of injected Dazl icaspase9 PGCs in embryos [7]: killed; also recorded: ablates

NC(=O)c1cc(N2CC2)c([N+](=O)[O-])cc1[N+](=O)[O-] [CB1954]
cell number versus control cells ([8]; NTR targeted to the dazl locus, FIG. 5): reduction in cell number in comparison to the control cells | PGC survival on exposure to pro-drug ([8]; PGCs containing the targeted nitroreductase gene): died
